This note sets out measurements from patent US20140343000A1 (priority 2011, published 2014).

As a reminder, the EC50 is the concentration needed to bring the measured effect to its halfway point.

This test deals with recombinant NL4-3 virus (Renilla luciferase in nef, Gag P373S; NLRluc) in MT-2 cells. Kind of test: whole plant or invertebrate. It is filed as cell-based, HIV. As to conditions: Renilla, NL43, luciferase activity in cells infected for 4-5 days with NLRluc recombinants, serial dilutions of inhibitor, read-out: EC50. An outline of the steps:
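Virus from 293T transfection, titered in MT-2 by luciferase. MT-2 (RPMI, 10% HI-FBS) infected ± inhibitor serial dilutions, 4-5 d. Readout: Dual Luciferase premix (lysis:reagent:Stop & Glo 2:1:1), immediate luminescence.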

SMILES strings stand for the structures. Read-outs that look alike come from different tables or passages of the source.

Consider `C=C(C)[C@@H]1CC[C@]2(NC(=O)N3CCNC(=O)CC3)CC[C@]3(C)[C@H](CC[C@@H]4[C@@]5(C)CC=C(c6ccc(C(=O)O)cc6)C(C)(C)[C@@H]5CC[C@]43C)[C@@H]12` [Example 42, 4-((1R,3aS,5aR,5bR,7aR,11aS,11bR,13aR,13bR)-5a,5b,8,8,11a-pentamethyl-3a-(5-oxo-1,4-diazepane-1-carboxamido)-1-(prop-1-en-2-yl)-2,3,3a,4,5,5a,5b,6,7,7a,8,11,11a,11b,12,13,13a,13b-octadecahydro-1H-cyclopenta[a]chrysen-9-yl)benzoic acid], for which the EC50 (class symbols (key in Table 1)) is below 0.1 µM.
On to `C=C(C)[C@@H]1CC[C@]2(N(C)C)CC[C@]3(C)[C@H](CC[C@@H]4[C@@]5(C)CC=C(c6ccc(C(=O)O)cc6)C(C)(C)[C@@H]5CC[C@]43C)[C@@H]12` [Example 177, 4-((1R,3aS,5aR,5bR,7aR,11aS,11bR,13aR,13bR)-3a-(dimethylamino)-5a,5b,8,8,11a-pentamethyl-1-(prop-1-en-2-yl)-2,3,3a,4,5,5a,5b,6,7,7a,8,11,11a,11b,12,13,13a,13b-octadecahydro-1H-cyclopenta[a]chrysen-9-yl)benzoic acid], for which, under “numeric values”, the EC50 was 0.009 µM.
Turning to `C=C(C)[C@@H]1CC[C@]2(NCC(C)C)CC[C@]3(C)[C@H](CC[C@@H]4[C@@]5(C)CC=C(c6ccc(C(=O)O)cc6)C(C)(C)[C@@H]5CC[C@]43C)[C@@H]12` [Example 181, 4-((1R,3aS,5aR,5bR,7aR,11aS,11bR,13aR,13bR)-3a-(isobutylamino)-5a,5b,8,8,11a-pentamethyl-1-(prop-1-en-2-yl)-2,3,3a,4,5,5a,5b,6,7,7a,8,11,11a,11b,12,13,13a,13b-octadecahydro-1H-cyclopenta[a]chrysen-9-yl)benzoic acid], under “class symbols (key in Table 1)”, the EC50 is below 0.1 µM.
On the same count and under the same terms, to `C=C(C)[C@@H]1CC[C@]2(N)CC[C@]3(C)[C@H](CC[C@@H]4[C@@]5(C)CC=C(c6ccc(C(=O)O)c(F)c6)C(C)(C)[C@@H]5CC[C@]43C)[C@@H]12` [Example A1, 4-((1R,3aS,5aR,5bR,7aR,11aS,11bR,13aR,13bR)-3a-amino-5a,5b,8,8,11a-pentamethyl-1-(prop-1-en-2-yl)-2,3,3a,4,5,5a,5b,6,7,7a,8,11,11a,11b,12,13,13a,13b-octadecahydro-1H-cyclopenta[a]chrysen-9-yl)-2-fluorobenzoic acid] belongs below 0.1 µM; to `C=C(C)[C@@H]1CC[C@]2(NC(=O)CN3CCCC3=O)CC[C@]3(C)[C@H](CC[C@@H]4[C@@]5(C)CC=C(c6ccc(C(=O)O)cc6)C(C)(C)[C@@H]5CC[C@]43C)[C@@H]12` [Example 95, 4-((1R,3aS,5aR,5bR,7aR,11aS,11bR,13aR,13bR)-5a,5b,8,8,11a-pentamethyl-3a-(2-(2-oxopyrrolidin-1-yl)acetamido)-1-(prop-1-en-2-yl)-2,3,3a,4,5,5a,5b,6,7,7a,8,11,11a,11b,12,13,13a,13b-octadecahydro-1H-cyclopenta[a]chrysen-9-yl)benzoic acid], below 0.1 µM; to `C=C(C)[C@@H]1CC[C@]2(NCCNC(C)=O)CC[C@]3(C)[C@H](CC[C@@H]4[C@@]5(C)CC=C(c6ccc(C(=O)O)cc6)C(C)(C)[C@@H]5CC[C@]43C)[C@@H]12` [Example 195, 4-((1R,3aS,5aR,5bR,7aR,11aS,11bR,13aR,13bR)-3a-(2-acetamidoethylamino)-5a,5b,8,8,11a-pentamethyl-1-(prop-1-en-2-yl)-2,3,3a,4,5,5a,5b,6,7,7a,8,11,11a,11b,12,13,13a,13b-octadecahydro-1H-cyclopenta[a]chrysen-9-yl)benzoic acid], below 0.1 µM.
For the compound `C=C(C)[C@@H]1CC[C@]2(NC(=O)NCCCn3ccnc3C)CC[C@]3(C)[C@H](CC[C@@H]4[C@@]5(C)CC=C(c6ccc(C(=O)O)cc6)C(C)(C)[C@@H]5CC[C@]43C)[C@@H]12` [Example 12, 4-((1R,3aS,5aR,5bR,7aR,11aS,11bR,13aR,13bR)-5a,5b,8,8,11a-pentamethyl-3a-(3-(3-(2-methyl-1H-imidazol-1-yl)propyl)ureido)-1-(prop-1-en-2-yl)-2,3,3a,4,5,5a,5b,6,7,7a,8,11,11a,11b,12,13,13a,13b-octadecahydro-1H-cyclopenta[a]chrysen-9-yl)benzoic acid], the EC50 (class symbols (key in Table 1)) is below 0.1 µM.
The same measure, in the same setting: to `C=C(C)[C@@H]1CC[C@]2(NC(=O)Cn3cc(-c4ccccc4)cn3)CC[C@]3(C)[C@H](CC[C@@H]4[C@@]5(C)CC=C(c6ccc(C(=O)O)cc6)C(C)(C)[C@@H]5CC[C@]43C)[C@@H]12` [Example 87, 4-((1R,3aS,5aR,5bR,7aR,11aS,11bR,13aR,13bR)-5a,5b,8,8,11a-pentamethyl-3a-(2-(4-phenyl-1H-pyrazol-1-yl)acetamido)-1-(prop-1-en-2-yl)-2,3,3a,4,5,5a,5b,6,7,7a,8,11,11a,11b,12,13,13a,13b-octadecahydro-1H-cyclopenta[a]chrysen-9-yl)benzoic acid] belongs below 0.1 µM; to `C=C(C)[C@@H]1CC[C@]2(NCCN3CCN(C(=O)C4CCCCC4)CC3)CC[C@]3(C)[C@H](CC[C@@H]4[C@@]5(C)CC=C(c6ccc(C(=O)O)cc6)C(C)(C)[C@@H]5CC[C@]43C)[C@@H]12` [Example B53, 4-((1R,3aS,5aR,5bR,7aR,11aS,11bR,13aR,13bR)-3a-((2-(4-(cyclohexanecarbonyl)piperazin-1-yl)ethyl)amino)-5a,5b,8,8,11a-pentamethyl-1-(prop-1-en-2-yl)-2,3,3a,4,5,5a,5b,6,7,7a,8,11,11a,11b,12,13,13a,13b-octadecahydro-1H-cyclopenta[a]chrysen-9-yl)benzoic acid], below 0.1 µM; to `C=C(C)[C@@H]1CC[C@]2(NCCN3CCN(S(=O)(=O)c4ccc(C(=O)O)cc4)CC3)CC[C@]3(C)[C@H](CC[C@@H]4[C@@]5(C)CC=C(c6ccc(C(=O)O)cc6)C(C)(C)[C@@H]5CC[C@]43C)[C@@H]12` [Example B51, 4-((4-(2-(((1R,3aS,5aR,5bR,7aR,11aS,11bR,13aR,13bR)-9-(4-carboxyphenyl)-5a,5b,8,8,11a-pentamethyl-1-(prop-1-en-2-yl)-2,3,3a,4,5,5a,5b,6,7,7a,8,11,11a,11b,12,13,13a,13b-octadecahydro-1H-cyclopenta[a]chrysen-3a-yl)amino)ethyl)piperazin-1-yl)sulfonyl)benzoic acid], below 0.1 µM.
Still for that read-out and setting: as for `C=C(C)[C@@H]1CC[C@]2(N(CCN3CCOCC3)CCN3CCOCC3)CC[C@]3(C)[C@H](CC[C@@H]4[C@@]5(C)CC=C(c6ccc(C(=O)O)cc6)C(C)(C)[C@@H]5CC[C@]43C)[C@@H]12` [Example 160, 4-((1R,3aS,5aR,5bR,7aR,11aS,11bR,13aR,13bR)-3a-(bis(2-morpholinoethyl)amino)-5a,5b,8,8,11a-pentamethyl-1-(prop-1-en-2-yl)-2,3,3a,4,5,5a,5b,6,7,7a,8,11,11a,11b,12,13,13a,13b-octadecahydro-1H-cyclopenta[a]chrysen-9-yl)benzoic acid], the figure is below 0.1 µM; as for `C=C(C)[C@@H]1CC[C@]2(NCC(=O)N3CCCC3)CC[C@]3(C)[C@H](CC[C@@H]4[C@@]5(C)CC=C(c6ccc(C(=O)O)cc6)C(C)(C)[C@@H]5CC[C@]43C)[C@@H]12` [Example 147, 4-((1R,3aS,5aR,5bR,7aR,11aS,11bR,13aR,13bR)-5a,5b,8,8,11a-pentamethyl-3a-(2-oxo-2-(pyrrolidin-1-yl)ethylamino)-1-(prop-1-en-2-yl)-2,3,3a,4,5,5a,5b,6,7,7a,8,11,11a,11b,12,13,13a,13b-octadecahydro-1H-cyclopenta[a]chrysen-9-yl)benzoic acid], below 0.1 µM.
In the case of `C=C(C)[C@@H]1CC[C@]2(NCCNS(=O)(=O)CCC)CC[C@]3(C)[C@H](CC[C@@H]4[C@@]5(C)CC=C(c6ccc(C(=O)O)cc6)C(C)(C)[C@@H]5CC[C@]43C)[C@@H]12` [Example B34, 4-((1R,3aS,5aR,5bR,7aR,11aS,11bR,13aR,13bR)-5a,5b,8,8,11a-pentamethyl-1-(prop-1-en-2-yl)-3a-((2-(propylsulfonamido)ethyl)amino)-2,3,3a,4,5,5a,5b,6,7,7a,8,11,11a,11b,12,13,13a,13b-octadecahydro-1H-cyclopenta[a]chrysen-9-yl)benzoic acid], under “class symbols (key in Table 1)”, the EC50 was below 0.1 µM.
With `C=C(C)[C@@H]1CC[C@]2(NCCNc3ccncc3)CC[C@]3(C)[C@H](CC[C@@H]4[C@@]5(C)CC=C(c6ccc(C(=O)O)cc6)C(C)(C)[C@@H]5CC[C@]43C)[C@@H]12` [Example 190, 4-((1R,3aS,5aR,5bR,7aR,11aS,11bR,13aR,13bR)-5a,5b,8,8,11a-pentamethyl-1-(prop-1-en-2-yl)-3a-(2-(pyridin-4-ylamino)ethylamino)-2,3,3a,4,5,5a,5b,6,7,7a,8,11,11a,11b,12,13,13a,13b-octadecahydro-1H-cyclopenta[a]chrysen-9-yl)benzoic acid], the EC50 (class symbols (key in Table 1)) was below 0.1 µM.
`C=C(C)[C@@H]1CC[C@]2(NC(=O)Cn3ccnc3)CC[C@]3(C)[C@H](CC[C@@H]4[C@@]5(C)CC=C(c6ccc(C(=O)O)cc6)C(C)(C)[C@@H]5CC[C@]43C)[C@@H]12` [Example 89, 4-((1R,3aS,5aR,5bR,7aR,11aS,11bR,13aR,13bR)-3a-(2-(1H-imidazol-1-yl)acetamido)-5a,5b,8,8,11a-pentamethyl-1-(prop-1-en-2-yl)-2,3,3a,4,5,5a,5b,6,7,7a,8,11,11a,11b,12,13,13a,13b-octadecahydro-1H-cyclopenta[a]chrysen-9-yl)benzoic acid]: where the note is “class symbols (key in Table 1)”, the EC50 is below 0.1 µM.
